16 compounds from ChEMBL document CHEMBL1909046, “DrugMatrix in vitro pharmacology data” can be followed below.

In experiment [1] the target is T1, Angiotensin-converting enzyme (Oryctolagus cuniculus, UniProt P12822).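 Further: enzymatic inhibition of angiotensin-converting enzyme measured with FAPGG as the substrate; in other assays of this panel Not Active means under 50% inhibition at 10 µM.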
T1 sequence (P12822 whole entry): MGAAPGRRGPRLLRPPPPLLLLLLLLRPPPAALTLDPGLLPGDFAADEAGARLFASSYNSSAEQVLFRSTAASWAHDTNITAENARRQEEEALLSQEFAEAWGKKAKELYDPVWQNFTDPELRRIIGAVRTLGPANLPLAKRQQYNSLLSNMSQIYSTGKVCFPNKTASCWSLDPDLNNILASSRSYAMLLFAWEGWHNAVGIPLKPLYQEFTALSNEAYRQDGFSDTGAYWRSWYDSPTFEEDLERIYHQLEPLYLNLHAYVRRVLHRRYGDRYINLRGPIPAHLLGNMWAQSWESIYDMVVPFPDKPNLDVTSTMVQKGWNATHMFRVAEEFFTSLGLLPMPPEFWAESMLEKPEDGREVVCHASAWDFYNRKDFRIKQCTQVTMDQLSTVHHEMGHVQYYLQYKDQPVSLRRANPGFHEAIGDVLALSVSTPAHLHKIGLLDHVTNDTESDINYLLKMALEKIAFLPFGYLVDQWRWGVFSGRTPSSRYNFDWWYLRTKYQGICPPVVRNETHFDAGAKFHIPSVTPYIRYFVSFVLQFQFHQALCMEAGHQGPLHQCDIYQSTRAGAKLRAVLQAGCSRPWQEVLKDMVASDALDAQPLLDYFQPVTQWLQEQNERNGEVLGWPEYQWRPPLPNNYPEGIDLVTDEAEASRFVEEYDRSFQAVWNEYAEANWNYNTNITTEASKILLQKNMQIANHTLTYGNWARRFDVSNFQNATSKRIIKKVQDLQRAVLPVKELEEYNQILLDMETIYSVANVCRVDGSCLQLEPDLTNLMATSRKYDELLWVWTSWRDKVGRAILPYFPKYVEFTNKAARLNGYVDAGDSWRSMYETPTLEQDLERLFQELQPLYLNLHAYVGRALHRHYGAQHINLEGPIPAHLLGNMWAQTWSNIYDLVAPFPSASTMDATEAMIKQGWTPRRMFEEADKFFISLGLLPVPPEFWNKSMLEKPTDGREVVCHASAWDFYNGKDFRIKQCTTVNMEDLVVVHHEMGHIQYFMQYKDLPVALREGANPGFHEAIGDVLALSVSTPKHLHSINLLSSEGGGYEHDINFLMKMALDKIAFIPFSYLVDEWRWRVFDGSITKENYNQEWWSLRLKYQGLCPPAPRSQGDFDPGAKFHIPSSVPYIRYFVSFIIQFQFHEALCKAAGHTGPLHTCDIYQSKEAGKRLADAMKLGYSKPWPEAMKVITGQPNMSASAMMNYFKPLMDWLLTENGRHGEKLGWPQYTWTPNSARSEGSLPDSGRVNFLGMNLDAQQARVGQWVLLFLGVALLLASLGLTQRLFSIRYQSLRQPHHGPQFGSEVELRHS
The format is tissue-based, Lung.

Experiment [2] in a line: DRUGMATRIX: Glutamate, NMDA, Phencyclidine radioligand binding (ligand: [3H] TCP). It is filed as cell membranes, Rattus norvegicus, Wistar, Cerebral cortex, Membrane. Particulars: Not Active = under 50% inhibition at 10 µM.
The target in the next experiment is T2, Adenosine receptor A1 (Homo sapiens, UniProt P30542).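 Further: radioligand binding assay at the adenosine A1 receptor, with DPCPX serving as the labelled ligand; in other assays of this panel Not Active means under 50% inhibition at 10 µM.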
T2 sequence (P30542 whole entry): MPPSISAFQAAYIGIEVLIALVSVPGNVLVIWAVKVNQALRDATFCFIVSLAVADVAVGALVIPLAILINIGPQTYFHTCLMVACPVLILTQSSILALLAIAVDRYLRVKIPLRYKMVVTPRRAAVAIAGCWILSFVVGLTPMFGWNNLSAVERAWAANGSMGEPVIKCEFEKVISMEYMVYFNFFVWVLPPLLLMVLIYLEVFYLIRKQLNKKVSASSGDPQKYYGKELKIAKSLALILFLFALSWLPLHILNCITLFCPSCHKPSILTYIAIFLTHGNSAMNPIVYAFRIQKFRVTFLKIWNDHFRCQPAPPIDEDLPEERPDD
It is filed as cell membranes, CHO, Membrane.

The target in experiment [3] is T3, Alpha-1D adrenergic receptor (Homo sapiens, UniProt P25100). Further: in other assays of this panel Not Active means under 50% inhibition at 10 µM.
T3 sequence (P25100 whole entry): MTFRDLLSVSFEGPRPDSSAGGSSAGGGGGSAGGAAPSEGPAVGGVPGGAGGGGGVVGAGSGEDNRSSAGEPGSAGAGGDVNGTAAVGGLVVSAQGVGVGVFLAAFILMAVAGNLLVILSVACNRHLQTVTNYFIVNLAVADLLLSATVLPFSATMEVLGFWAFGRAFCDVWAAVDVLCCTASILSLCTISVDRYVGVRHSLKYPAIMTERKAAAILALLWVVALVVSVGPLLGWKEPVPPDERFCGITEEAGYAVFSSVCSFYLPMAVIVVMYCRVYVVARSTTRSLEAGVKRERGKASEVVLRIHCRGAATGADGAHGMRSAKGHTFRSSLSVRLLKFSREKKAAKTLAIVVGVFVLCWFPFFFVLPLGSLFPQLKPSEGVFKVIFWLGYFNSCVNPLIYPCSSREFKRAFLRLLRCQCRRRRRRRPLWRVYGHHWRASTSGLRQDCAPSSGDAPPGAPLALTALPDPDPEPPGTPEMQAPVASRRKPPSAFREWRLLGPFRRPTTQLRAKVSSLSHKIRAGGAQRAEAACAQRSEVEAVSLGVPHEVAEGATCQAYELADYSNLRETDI
The format is cell membranes, HEK293, Membrane. To be noted: for Ki: read-out: Ki.

Experiment [4] addresses Protein phosphatase 3 catalytic subunit alpha (Homo sapiens, UniProt Q08209). Further details: species or system Escherichia coli.
Experiment [5] in a line: DRUGMATRIX: Interleukin IL-1 radioligand binding (ligand: [125I] interleukin 1beta). It is filed as cell membranes, Membrane. To be noted: nih3t3; Not Active = under 50% inhibition at 10 µM.
The nature of experiment [6]: DRUGMATRIX: Platelet-Derived Growth Factor (PDGF) radioligand binding (ligand: [125I] PDGF). It is filed as cell-based. Particulars: nih3t3; Not Active = under 50% inhibition at 10 µM.

What is called IC50 is the concentration at which inhibition is half-maximal. The Ki is the dissociation constant of the complex between target and ligand, obtained from inhibition or displacement. For the compound `CC(C)(C)NC(=O)[C@@H]1C[C@@H]2CCCC[C@@H]2CN1C[C@@H](O)[C@H](Cc1ccccc1)NC(=O)[C@H](CC(N)=O)NC(=O)c1ccc2ccccc2n1`, the IC50 entry (in experiment [1]; in experiment [2]; against Adenosine receptor A1 (cho); in experiment [3] (hek293); in experiment [4]; in experiment [5]) was “Not Active” each time. For the same compound, in experiment [6], the IC50 entry is reported as “Not Active”. The Ki result in experiment [2], in experiment [5] and in experiment [6] was “Not Active” in each case.

In the case of `CC(=O)[C@@]1(O)CC[C@H]2[C@@H]3C[C@H](C)C4=CC(=O)CC[C@]4(C)[C@H]3CC[C@@]21C`, the IC50 entry (in experiment [1]; in experiment [2]; at Adenosine receptor A1 (cho); in experiment [3] (hek293); in experiment [4]; in experiment [5]) was “Not Active” each time. For the same compound, the IC50 entry in experiment [6] is recorded as “Not Active”. The inhibitory constant (Ki) entry in experiment [2], in experiment [5] and in experiment [6] was “Not Active” in each case.

Regarding `N[C@@H](Cc1ccc(N(CCCl)CCCl)cc1)C(=O)O`, the IC50 entry (in experiment [1]; in experiment [2]; against Adenosine receptor A1 (cho); in experiment [3] (hek293); in experiment [4]; in experiment [5]) was “Not Active” in each case. Further, in experiment [6], the half-inhibitory concentration (IC50) entry is on record as “Not Active”. Further, the Ki entry in experiment [2], in experiment [5] and in experiment [6] was “Not Active” each time.

With `CCCCc1oc2ccccc2c1C(=O)c1cc(I)c(OCCN(CC)CC)c(I)c1` [AMIODARONE], the IC50 entry (in experiment [1]; at Adenosine receptor A1 (cho); in experiment [3] (hek293); in experiment [4]) was “Not Active” each time.

`OCCN(CCO)c1nc(N2CCCCC2)c2nc(N(CCO)CCO)nc(N3CCCCC3)c2n1` [DIPYRIDAMOLE]: the IC50 entry (in experiment [1]; in experiment [2]; against Adenosine receptor A1 (cho); in experiment [3] (hek293); in experiment [4]; in experiment [5]) was “Not Active” each time. Further, in experiment [6], the IC50 result is “Not Active”. Further, the Ki entry in experiment [2], in experiment [5] and in experiment [6] was “Not Active” each time.

Consider `Cc1oncc1C(=O)Nc1ccc(C(F)(F)F)cc1` [LEFLUNOMIDE], for which the IC50 entry (in experiment [1]; in experiment [2]; against Adenosine receptor A1 (cho); in experiment [3] (hek293); in experiment [4]; in experiment [5]) was “Not Active” in each case. The concentration for half-maximal inhibition (IC50) result in experiment [6] was “Not Active”. Besides, the Ki result in experiment [2], in experiment [5] and in experiment [6] was “Not Active” throughout.

Regarding `c1ccc([C@H]2CN3CCSC3=N2)cc1` [LEVAMISOLE], the IC50 entry (in experiment [1]; in experiment [2]; against Adenosine receptor A1 (cho); in experiment [3] (hek293); in experiment [4]; in experiment [5]) was “Not Active” in each case. The IC50 entry in experiment [6] is on record as “Not Active”. For the same compound, the Ki result in experiment [2], in experiment [5] and in experiment [6] was “Not Active” each time.

As for `N[C@@H](Cc1ccc(O)c(O)c1)C(=O)O` [LEVODOPA], the 50% inhibitory concentration (IC50) entry (in experiment [1]; in experiment [2]; against Adenosine receptor A1 (cho); in experiment [3] (hek293); in experiment [4]; in experiment [5]) was “Not Active” each time. Further, the IC50 entry in experiment [6] is reported as “Not Active”. The inhibitory constant (Ki) result in experiment [2], in experiment [5] and in experiment [6] was “Not Active” in each case.

Turning to `N[C@@H](Cc1cc(I)c(Oc2ccc(O)c(I)c2)c(I)c1)C(=O)O` [LIOTHYRONINE], the IC50 entry in experiment [1] is “Not Active”; at Adenosine receptor A1 (read-out: IC50), 411 nM; in experiment [3] (hek293) it was “Not Active”; in experiment [4] it was “Not Active”. The Ki on Adenosine receptor A1 (read-out: Ki) stood at 240 nM.

For the compound `O=NN(CCCl)C(=O)NC1CCCCC1` [LOMUSTINE], the IC50 result (in experiment [1]; in experiment [2]; against Adenosine receptor A1 (cho); in experiment [3] (hek293); in experiment [4]; in experiment [5]) was “Not Active” in each case. The IC50 result in experiment [6] was “Not Active”. Further, the Ki result in experiment [2], in experiment [5] and in experiment [6] was “Not Active” each time.

Turning to `CCOC(=O)N1CCC(=C2c3ccc(Cl)cc3CCc3cccnc32)CC1` [LORATADINE], the IC50 entry (in experiment [1]; in experiment [2]; against Adenosine receptor A1 (cho); in experiment [3] (hek293); in experiment [4]; in experiment [5]) was “Not Active” throughout. For the same compound, in experiment [6], the IC50 entry is on record as “Not Active”. Also, the Ki entry in experiment [2], in experiment [5] and in experiment [6] was “Not Active” each time.

`Cn1ccnc1S` [METHIMAZOLE]: the IC50 result (in experiment [1]; in experiment [2]; on Adenosine receptor A1 (cho); in experiment [3] (hek293); in experiment [4]; in experiment [5]) was “Not Active” each time. Moreover, the IC50 entry in experiment [6] is given as “Not Active”. In addition, the Ki result in experiment [2], in experiment [5] and in experiment [6] was “Not Active” throughout.

`CN1CCN(CCCN2c3ccccc3Sc3ccc(Cl)cc32)CC1` [PROCHLORPERAZINE]: the IC50 entry is “Not Active” in experiment [1], “Not Active” against Adenosine receptor A1 (cho), 34 nM in experiment [3] (read-out: IC50) and “Not Active” in experiment [4]. The inhibition constant Ki in experiment [3] came to 16 nM.

`Cc1nc2n(c(=O)c1CCN1CCC(c3noc4cc(F)ccc34)CC1)CCCC2` [RISPERIDONE]: the IC50 entry (in experiment [1]; against Adenosine receptor A1 (cho); in experiment [4]) was “Not Active” in each case.

Consider `CC/C(=C(\c1ccccc1)c1ccc(OCCN(C)C)cc1)c1ccccc1` [TAMOXIFEN], for which the IC50 result is “Not Active” in experiment [1], 4980 nM in experiment [3] (read-out: IC50) and 30600 nM in experiment [4] (read-out: IC50). The Ki in experiment [3] came to 2450 nM.

With `CC(C)N1CCN(c2ccc(OCC3COC(Cn4cncn4)(c4ccc(Cl)cc4Cl)O3)cc2)CC1` (stereo not drawn) [TERCONAZOLE], the IC50 result in experiment [1] is “Not Active”; in experiment [2], “Not Active”; at Adenosine receptor A1 (cho) it was “Not Active”; in experiment [3] (read-out: IC50), 14400 nM; in experiment [4], “Not Active”. In addition, the Ki entry was “Not Active” in experiment [2] and 7070 nM in experiment [3].
